Measured values reported in patent US12527753B2, “Cysteamine for the treatment, mitigation and prevention of coronaviral, e.g., SARS-CoV-2, infections” (The Regents of the University of Michigan, priority 2020, dated 2026).
Counter-ions that a name gives are not always drawn. Like-named read-outs stand apart in the source and are kept apart here.

Experiments:
Assay in all cases: Virus pre-incubation, plaque formation in TMPRSS cells
Format in all cases: cell-based
[1] = tested on: SARS-CoV-2 variant alpha; settings: Severe acute respiratory syndrome coronavirus 2, 2 h; 5 mM, 120 min incubation
[2] = tested on: SARS-CoV-2 variant beta; settings: Severe acute respiratory syndrome coronavirus 2, 2 h; 5 mM, 120 min incubation
[3] = tested on: SARS-CoV-2 variant gamma; settings: Severe acute respiratory syndrome coronavirus 2, 2 h; 5 mM, 120 min incubation
[4] = tested on: SARS-CoV-2 Delta variant; settings: 10 mM; for inhibition at 10000 µM: read-out: inhibition / inactivation

`NCCS` [cysteamine HCl] was tested, and the inhibition at 5000 µM [1] was 85 to 95%, the inhibition at 5000 µM [2] was 85 to 95% and the inhibition at 5000 µM [3] was 85 to 95%. The inhibition at 10000 µM ([4]; Severe acute respiratory syndrome coronavirus 2, 2 h, 120 min incubation) was 100% and the inhibition at 10000 µM ([4]; Severe acute respiratory syndrome coronavirus 2, 15 min incubation, sustained through 90 minutes) was 85%.

Molecule 2-aminoethanethiol [cysteamine] has an inhibition / inactivation ([4]; 15 min incubation, sustained through 90 minutes) of 85% and an inhibition / inactivation ([4]; 120 min incubation) of 100%.
